Patent US20240018161A1, “MODULATORS OF CYSTIC FIBROSIS TRANSMEMBRANE CONDUCTANCE REGULATOR” (VERTEX PHARMACEUTICALS INCORPORATED, priority 2020, published 2024)
Read-outs that look alike come from different tables or passages of the source.

Molecular target: CFTR-mediated chloride transport in human intestinal epithelial enteroid cells (Homo sapiens, UniProt P13569)
Test: Membrane potential dye, Enteroid Assay A
Type: cell-based
Conditions: for EC50: read-out: Ent. A EC50
Outline: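 Membrane potential dye (20 μM methyl oxonol, with 30 μM CaCCinh-A01 and 30 μM Chicago Sky Blue) loaded 25 min at room temperature into ROCK-inhibitor-seeded human enteroid cells. Chloride-free stimulation buffer triggered transport, followed by 15 min fluorescence. % Activity relative to 3 μM/3 μM/300 nM triple-combination control.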

[1] = enteroid cells incubated with test compound 18-24 hours, acute 10 μM forskolin and 300 nM N-[2,4-bis(1,1-dimethylethyl)-5-hydroxyphenyl]-1,4-dihydro-4-oxoquinoline-3-carboxamide
[2] = percentage of chloride transport of triple combination control (3 μM N-[(6-amino-2-pyridyl)sulfonyl]-6-(3-fluoro-5-isobutoxy-phenyl)-2-[(4S)-2,2,4-trimethylpyrrolidin-1-yl]pyridine-3-carboxamide based)

Chain of CFTR-mediated chloride transport in human intestinal epithelial enteroid cells (P13569 with tags, fused parts or gaps DEL508-508): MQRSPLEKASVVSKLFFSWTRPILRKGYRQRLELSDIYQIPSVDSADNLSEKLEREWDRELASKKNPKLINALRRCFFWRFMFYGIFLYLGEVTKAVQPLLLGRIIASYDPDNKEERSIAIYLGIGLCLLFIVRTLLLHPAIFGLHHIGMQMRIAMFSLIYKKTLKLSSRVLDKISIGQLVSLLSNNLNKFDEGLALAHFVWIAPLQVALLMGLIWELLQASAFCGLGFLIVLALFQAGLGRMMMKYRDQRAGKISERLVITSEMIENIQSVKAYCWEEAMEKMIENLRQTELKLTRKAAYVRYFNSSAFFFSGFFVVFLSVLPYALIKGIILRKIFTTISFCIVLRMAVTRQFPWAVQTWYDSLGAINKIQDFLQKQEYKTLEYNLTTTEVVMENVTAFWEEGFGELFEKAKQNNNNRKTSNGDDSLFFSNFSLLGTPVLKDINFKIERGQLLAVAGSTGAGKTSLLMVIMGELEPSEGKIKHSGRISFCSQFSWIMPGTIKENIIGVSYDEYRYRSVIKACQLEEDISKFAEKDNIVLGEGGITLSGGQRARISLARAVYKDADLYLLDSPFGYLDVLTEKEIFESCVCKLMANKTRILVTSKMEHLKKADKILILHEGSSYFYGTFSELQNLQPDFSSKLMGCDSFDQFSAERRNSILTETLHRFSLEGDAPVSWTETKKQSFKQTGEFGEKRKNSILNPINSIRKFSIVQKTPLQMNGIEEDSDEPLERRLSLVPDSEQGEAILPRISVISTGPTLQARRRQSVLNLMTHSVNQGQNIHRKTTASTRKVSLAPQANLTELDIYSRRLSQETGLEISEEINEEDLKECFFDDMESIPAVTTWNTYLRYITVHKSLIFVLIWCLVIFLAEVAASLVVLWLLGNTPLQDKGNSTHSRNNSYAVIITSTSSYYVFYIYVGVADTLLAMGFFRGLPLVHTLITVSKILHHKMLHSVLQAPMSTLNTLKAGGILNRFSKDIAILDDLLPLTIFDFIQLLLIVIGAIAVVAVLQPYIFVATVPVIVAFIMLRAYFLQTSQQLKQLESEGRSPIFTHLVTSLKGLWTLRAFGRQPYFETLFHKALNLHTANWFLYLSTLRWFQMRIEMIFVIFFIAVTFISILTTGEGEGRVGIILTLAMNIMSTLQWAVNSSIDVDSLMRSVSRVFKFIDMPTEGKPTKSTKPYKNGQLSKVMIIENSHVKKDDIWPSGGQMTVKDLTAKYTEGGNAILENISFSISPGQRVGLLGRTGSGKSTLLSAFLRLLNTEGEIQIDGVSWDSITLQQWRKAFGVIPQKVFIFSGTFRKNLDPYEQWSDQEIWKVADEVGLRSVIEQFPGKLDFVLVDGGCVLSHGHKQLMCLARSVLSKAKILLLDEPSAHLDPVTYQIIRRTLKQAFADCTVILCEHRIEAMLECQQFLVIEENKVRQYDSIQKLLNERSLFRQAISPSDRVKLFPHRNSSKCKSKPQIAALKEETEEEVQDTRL

SMILES	EC50 [1] [µM]	Ent. A Max Activity (%) (Enteroid Assay A)	EC50 (Enteroid Assay A) [µM]	Ent. A Max Activity (%) [2]
Cc1cccc(C)c1-c1cc2nc(n1)NS(=O)(=O)N1CCc3ccc(cc31)C(=O)N1Cc3ccccc3[C@@H](O2)[C@H]1CC(C)C [Compound 249]	–	++ (++ is 30-60%)	< 1	–
Cc1cccc(C)c1-c1cc2nc(n1)NS(=O)(=O)N1CCc3ccc(cc31)C(=O)N1Cc3ccccc3[C@@H](O2)[C@H]1CC(C)C [Compound 250]	–	++ (++ is 30-60%)	1 to 3	–
Cc1cccc(C)c1-c1cc2nc(n1)NS(=O)(=O)c1cccc(c1)C1CCCCN1C(CC(C)C)CO2 (stereo not shown) [Compound 253]	–	–	–	+ (+ is <300%)
Cc1cccc(C)c1-c1cc2nc(n1)NS(=O)(=O)c1cccc(c1)C(=O)N1CCN(CC3(C)COC3)C[C@@H]1CO2 [Compound 261]	–	–	–	+ (+ is <300%)
Cc1cccc(C)c1-c1cc2nc(n1)NS(=O)(=O)c1cccc(c1)C(=O)N1CCN(Cc3cnn(C(C)C)c3)C[C@@H]1CO2 [Compound 264]	–	–	–	++ (++ is 30-60%)
CNc1ccc(CN2CCN3C(=O)c4cccc(c4)S(=O)(=O)Nc4nc(cc(-c5c(C)cccc5C)n4)OC[C@H]3C2)cn1 [Compound 265]	3 to 30	–	–	++ (++ is 30-60%)
Cc1cccc(C)c1-c1cc2nc(n1)NS(=O)(=O)c1cccc(c1)C(=O)N1CCN(Cc3ccccc3C#N)C[C@@H]1CO2 [Compound 266]	3 to 30	–	–	+++ (+++ is >60%)
Cc1cccc(C)c1-c1cc2nc(n1)NS(=O)(=O)c1cccc(c1)C(=O)N1CCN(Cc3cccc(C#N)c3)C[C@@H]1CO2 [Compound 267]	1 to 3	–	–	+++ (+++ is >60%)
Cc1cccc(C)c1-c1cc2nc(n1)NS(=O)(=O)c1cccc(c1)C(=O)N1CCN(Cc3ccc(C#N)cc3)C[C@@H]1CO2 [Compound 270]	1 to 3	–	–	+++ (+++ is >60%)
Cc1cccc(C)c1-c1cc2nc(n1)NS(=O)(=O)c1cccc(c1)C(=O)N1CCN(Cc3ccccc3O)C[C@@H]1CO2 [Compound 271]	< 1	–	–	+++ (+++ is >60%)
Cc1cccc(C)c1-c1cc2nc(n1)NS(=O)(=O)c1cccc(c1)C(=O)N1CCN(Cc3cccc(O)c3)C[C@@H]1CO2 [Compound 272]	3 to 30	–	–	+++ (+++ is >60%)
Cc1cccc(C)c1-c1cc2nc(n1)NS(=O)(=O)c1cccc(c1)C(=O)N1CCN(Cc3ccc(O)cc3)C[C@@H]1CO2 [Compound 273]	1 to 3	–	–	++ (++ is 30-60%)
Cc1cccc(C)c1-c1cc2nc(n1)NS(=O)(=O)c1cccc(c1)C(=O)N1CCN(Cc3cn(C)nc3C)C[C@@H]1CO2 [Compound 276]	–	–	–	++ (++ is 30-60%)
Cc1cccc(C)c1-c1cc2nc(n1)NS(=O)(=O)c1cccc(c1)C(=O)N1CCN(Cc3ccc[nH]c3=O)C[C@@H]1CO2 [Compound 277]	–	–	–	+ (+ is <300%)
Cc1cccc(C)c1-c1cc2nc(n1)NS(=O)(=O)c1cccc(c1)C(=O)N1CCN(Cc3cncn3C)C[C@@H]1CO2 [Compound 279]	–	–	–	+ (+ is <300%)
Cc1cccc(C)c1-c1cc2nc(n1)NS(=O)(=O)c1cccc(c1)C(=O)N1CCN(Cc3ccncc3)C[C@@H]1CO2 [Compound 280]	–	–	–	++ (++ is 30-60%)
Cc1cccc(C)c1-c1cc2nc(n1)NS(=O)(=O)c1cccc(c1)C(=O)N1CCN(Cc3ccccn3)C[C@@H]1CO2 [Compound 281]	–	–	–	++ (++ is 30-60%)

Continued, in another order:

EC50 [1] [µM]	Ent. A Max Activity (%) (Enteroid Assay A)	EC50 (Enteroid Assay A) [µM]	SMILES	Ent. A Max Activity (%) [2]
< 1	–	–	Cc1cccc(C)c1-c1cc2nc(n1)NS(=O)(=O)c1cccc(c1)C(=O)N1Cc3ccccc3C[C@H]1CO2 [Compound 212, (12S)-17-(2,6-Dimethylphenyl)-14-oxa-21λ^6-thia-3,18,20,27-tetraazapentacyclo[20.3.1.115,19.03,12.05,10]heptacosa-1(26),5(10),6,8,15(27),16,18,22,24-nonaene-2,21,21-trione]	++ (++ is 30-60%)
< 1	–	–	Cc1cccc(C)c1-c1cc2nc(n1)NS(=O)(=O)c1cccc(c1)C(=O)N1CCc3ccccc3C(C1)O2 (stereo not shown) [Compound 220, 12-(2,6-Dimethylphenyl)-15-oxa-8λ^6-thia-1,9,11,26-tetraazapentacyclo[14.8.1.13,7.110,14.017,22]heptacosa-3(27),4,6,10(26),11,13,17,19,21-nonaene-2,8,8-trione]	+++ (+++ is >60%)
< 1	–	–	Cc1cccc(C)c1-c1cc2nc(n1)NS(=O)(=O)c1cccc(c1)C(=O)N1CC(CC3(CCCC3)C1)O2 (stereo not shown) [Compound 229, 18′-(2,6-Dimethylphenyl)-2′-oxa-14′λ^6-thia-7′,15′,17′,20′-tetraazaspiro[cyclopentane-1,5′-tetracyclo[14.3.1.13,7.19,13]docosane]-1′(20′),9′,11′,13′(21′),16′,18′-hexaene-8′,14′,14′-trione]	++ (++ is 30-60%)
–	++ (++ is 30-60%)	3 to 30	Cc1cccc(C)c1-c1cc2nc(n1)NS(=N)(=O)c1cccc(c1)C(=O)N1CCN(C(=O)OC(C)(C)C)CC(C1)O2 (stereo not shown) [Compound 240, tert-butyl 12-(2,6-dimethylphenyl)-8-imino-2,8-dioxo-15-oxa-8λ^6-thia-1,9,11,18,22-pentaazatetracyclo[14.4.1.13,7.110,14]tricosa-3,5,7(23),10,12,14(22)-hexaene-18-carboxylate]	–
–	+ (+ is <30%)	–	Cc1cccc(C)c1-c1cc2nc(n1)NS(=N)(=O)c1cccc(c1)C(=O)N1CCNCC(C1)O2 (stereo not shown) [Compound 241, 12-(2,6-Dimethylphenyl)-8-imino-15-oxa-8λ^6-thia-1,9,11,18,22-pentaazatetracyclo[14.4.1.13,7.110,14]tricosa-3,5,7(23),10,12,14(22)-hexaene-2,8-dione]	–
–	+ (+ is <30%)	–	Cc1cccc(C)c1-c1cc2nc(n1)NS(=N)(=O)c1cccc(c1)C(=O)N1CCNCC(C1)O2 (stereo not shown) [Compound 242, 12-(2,6-Dimethylphenyl)-8-imino-15-oxa-8λ^6-thia-1,9,11,18,22-pentaazatetracyclo[14.4.1.13,7.110,14]tricosa-3,5,7(23),10,12,14(22)-hexaene-2,8-dione]	–
–	++ (++ is 30-60%)	1 to 3	Cc1cccc(C)c1-c1cc2nc(n1)NS(=N)(=O)c1cccc(c1)C(=O)N1CCN(Cc3ccccc3)CC(C1)O2 (stereo not shown) [Compound 246]	–
–	+ (+ is <30%)	1 to 3	Cc1cccc(C)c1-c1cc2nc(n1)NS(=N)(=O)c1cccc(c1)C(=O)N1CCN(CCC(C)(C)C)CC(C1)O2 (stereo not shown) [Compound 247]	–
1 to 3	–	–	COC(=O)C1CC2CN(C1)C(=O)Nc1cccc(c1)S(=O)(=O)Nc1nc(cc(-c3c(C)cccc3C)n1)O2 (stereo not shown) [Compound 252]	++ (++ is 30-60%)
1 to 3	–	–	Cc1cccc(C)c1-c1cc2nc(n1)NS(=O)(=O)c1cccc(c1)C(=O)N1CC(C)(C)OCC1CO2 (stereo not shown) [Compound 254]	++ (++ is 30-60%)
< 1	–	–	Cc1cccc(C)c1-c1cc2nc(n1)NS(=O)(=O)c1cccc(c1)C(=O)N1CCN(C(=O)CC3CCCCC3)C[C@@H]1CO2 [Compound 255]	++ (++ is 30-60%)
< 1	–	–	Cc1cccc(C)c1-c1cc2nc(n1)NS(=O)(=O)c1cccc(c1)C(=O)N1CCN(CC3CCOC(C)(C)C3)C[C@@H]1CO2 (stereo partly shown) [Compound 256]	+++ (+++ is >60%)
< 1	–	–	Cc1cccc(C)c1-c1cc2nc(n1)NS(=O)(=O)c1cccc(c1)C(=O)N1CCN(CC3(NC(=O)OC(C)(C)C)CCCC3)C[C@@H]1CO2 [Compound 257]	+++ (+++ is >60%)
3 to 30	–	–	Cc1cccc(C)c1-c1cc2nc(n1)NS(=O)(=O)c1cccc(c1)C(=O)N1CCN(C(=O)N3CCCCC3)C[C@@H]1CO2 [Compound 258]	++ (++ is 30-60%)
< 1	–	–	CCC(CC)CN1CCN2C(=O)c3cccc(c3)S(=O)(=O)Nc3nc(cc(-c4c(C)cccc4C)n3)OC[C@H]2C1 [Compound 259]	+++ (+++ is >60%)
< 1	–	–	Cc1cccc(C)c1-c1cc2nc(n1)NS(=O)(=O)c1cccc(c1)C(=O)N1CCN(CC3CCCC3)C[C@@H]1CO2 [Compound 260]	+++ (+++ is >60%)
3 to 30	–	–	Cc1cccc(C)c1-c1cc2nc(n1)NS(=O)(=O)c1cccc(c1)C(=O)N1CCN(CC3CC3)C[C@@H]1CO2 [Compound 262]	+++ (+++ is >60%)
3 to 30	–	–	Cc1cccc(C)c1-c1cc2nc(n1)NS(=O)(=O)c1cccc(c1)C(=O)N1CCN(CCC3CCOCC3)C[C@@H]1CO2 [Compound 263]	++ (++ is 30-60%)
1 to 3	–	–	Cc1cccc(C)c1-c1cc2nc(n1)NS(=O)(=O)c1cccc(c1)C(=O)N1CCN(CCC(C)C)C[C@@H]1CO2 [Compound 268]	+++ (+++ is >60%)
< 1	–	–	Cc1cccc(C)c1-c1cc2nc(n1)NS(=O)(=O)c1cccc(c1)C(=O)N1CCN(CC(C)C)C[C@@H]1CO2 [Compound 269]	+++ (+++ is >60%)
3 to 30	–	–	Cc1ccc(CN2CCN3C(=O)c4cccc(c4)S(=O)(=O)Nc4nc(cc(-c5c(C)cccc5C)n4)OC[C@H]3C2)cn1 [Compound 274]	+++ (+++ is >60%)
3 to 30	–	–	Cc1cccc(C)c1-c1cc2nc(n1)NS(=O)(=O)c1cccc(c1)C(=O)N1CCN(Cc3nccs3)C[C@@H]1CO2 [Compound 275]	+++ (+++ is >60%)
3 to 30	–	–	Cc1cccc(C)c1-c1cc2nc(n1)NS(=O)(=O)c1cccc(c1)C(=O)N1CCN(Cc3cccnc3)C[C@@H]1CO2 [Compound 282]	++ (++ is 30-60%)
